Laboratory results published in patent US8048918B2, “Treatment of hyperproliferative diseases” (Vampex Limited, priority 2000, dated 2011).
Where no end group is shown, it is not given here.

Legend:
[1] = system: normal human epidermal keratinocytes; experiment: differentiation assay (K1/K10) on normal human epidermal keratinocytes; type: cell-based; settings: for differentiation: Carbenoxolone 6 μM, Disulfiram 15 μM or Citral 10 μM, 1.2 mM calcium, FIG. 11
Procedure: (§1) Primary cultures were seeded at 3500 cells/cm^2 in K-SFM 25 cm^2 tissue culture flasks. The medium was changed (5 ml per flask) the day after seeding and every other day thereafter. At 70-80% confluence the cells were subcultured by seeding 3500 cells/cm^2 in new 25 cm^2 flasks. On the day that the subcultures reached confluence the medium was switched to medium containing the experimental treatments.
(§2) The cells were cultured for 4 days, replacing the experimental medium every other day, before harvesting the cells.
RNA extraction is carried out according to the manufacturers instructions using the RNeasy kit (QIAGEN). 20 μg of RNA for each treatment was separated on a 1.2% agarose (1.8% formaldehyde) gel and transferred onto a nylon membrane (Zeta probe GT membranes, BioRad) by capillary transfer. The RNA is fixed to the membrane by UV crosslinking. DNA probes for the differentiation markers K1 and K10(50 ng) are labelled with [α-^32P] dCTP using the Prime-It RmT Primer labeling kit (Stratagene) following the manufacturer's instructions. Unincorporated nucleotides are removed by elution through a Microspin G25 column (Pharmacia Biotech). The blots are wetted in 0.25M sodium phosphate (pH 7.2)/7% SDS for 30 minutes at 65° C. Fresh hybridisation solution is added along with the radiolabelled probe and the blot is hybridised overnight at 65° C.
The blot is washed for 2×5 minutes in 0.25M sodium phosphate (pH 7.2), 7% SDS and then for 2×5 minutes in 20 mM sodium phosphate (pH 7.2), 5% SDS at 65° C. The wash steps are repeated until a clear distinction can be made between the signal and non-specific background. The blot is exposed to x-ray film for 24 hours before developing.
Synthesis of mRNA for the K1 and K10 keratin (markers for commitment to terminal differentiation) is examined by quantitative reverse transcription PCR (RT-PCR). Synthesis of mRNA for Cyclin D (a marker for cell proliferation) is also assayed by RT-PCR. […] The RNA is blotted onto a nylon membrane by capillary transfer and expression of K1 mRNA is determined by Northern hybridisation with a radiolabelled DNA probe. […]

[2] = system: normal human epidermal keratinocytes; experiment: proliferation assay on normal human epidermal keratinocytes; type: cell-based
Procedure: Pieces of skin are washed thoroughly for 30 minutes in Betadine solution (10% iodine) followed by 2×10 minute washes in PBS. After removal of the subcutaneous tissue and dermis with a scalpel the skin is dissected into 5×10 mm pieces. The skin pieces are rinsed 5× in PBS followed by incubating in Dispase (grade 11, 2.4 U/ml, Boehringer Mannheim) for 18 hours at4° C.
The skin pieces are then placed dermis side down in 100 mm Petri dishes and are irrigated with 5 ml KSFM. The epidermis is peeled off with forceps and incubated in 10 ml 1× Trypsin/EDTA solution for 10 minutes at 37° C. followed by addition of 10 ml KSFM. The sample is mechanically agitated by aspiration and ejection from a transfer pipette. The resulting cell suspension is sieved using a cell strainer (Becton Dickinson) rinsing through with KSFM. The isolated epidermal cells are then washed twice in KSFM by centrifugation at 100 g for 10 min. Cells are seeded as below.
as §1, §2
Cell Seeding and Analysis: Purchased secondary cultures or primary cultures (from donor skin) are seeded at 3500 cells/cm^2 in K-SFM 25 cm^2 tissue culture flasks. The medium is changed (5 ml per flask) the day after seeding and every other day thereafter. […]
The medium is replaced every other day. […] The cell suspension is added to 20 ml Isoton solution in a Coulter counter “Accuvette” and the cells are counted. On each harvest, 3 wells of cells are counted for each treatment and 3 counts were made for each well.
Cell number is calculated as follows: Coulter Counter removes 500 μl of 20 ml sample ( 1/40). […]

[3] = Carbenoxolone 6 μM, Disulfiram 15 μM or Citral 10 μM

CC(C)=CCCC(C)=CC=O [Citral, 3,7-dimethyl-2,6-octadienal]
differentiation [1]: increase differentiation
proliferation [2, 3]: inhibit proliferation

GRVRLLNNWDVCA
differentiation (expression of K1 and K10 markers) ([1]; peptide 6 μM, RBP 0.6 μM, Ca 1.2 mM, FIG. 6): enhances the expression of K1 and K10 markers
proliferation ([2]; peptide 6 μM, RBP 0.6 μM, Ca 1.2 mM): reduces proliferation

CC1(C)[C@@H](OC(=O)CCC(=O)O)CC[C@]2(C)[C@H]3C(=O)C=C4[C@@H]5C[C@@](C)(C(=O)O)CC[C@]5(C)CC[C@@]4(C)[C@]3(C)CC[C@@H]12 [Carbenoxolone]
differentiation [1]: increase differentiation
proliferation [2, 3]: inhibit proliferation
